The supplement of paper PMC11208160

Experiment: recombinant barcode read abundance after kanamycin selection (control-corrected) (log10(CPM+1)); higher = more efficient recombination; sequences stand for … in AGTGCAGAGAAAATCGGCCAGTTTTCTCTGCCTGCAGTCCGCATGCCGT…AGATTTATGCAGCGGACTGCCTTTCTCCCAAAGTGATAAACCGGACAGTATCATGGACCGGTTTTCCCGGTAATCCGTATTTGCAAGGTTGGTTTCACT; site = the 11-nt target
Summary of the method: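 Reported as log10(CPM+1), each value stands for recombination efficiency. That efficiency is the averaged, control-corrected counts per million of barcodes found at recombinant junctions. Cells from a pooled E. coli library pairing targets with IS621 bridge RNA target-binding loops were plated twice on chloramphenicol/ampicillin LB agar (control) and twice on chloramphenicol/ampicillin/kanamycin with 0.1 mM IPTG.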
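Also: IS621 recombinase and bridge RNA in Escherichia coli cells.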

“AGTAAGACTTGGGTTCTAACCTGTTGCAT (site AGTAAGACTAC)” and “TGTGAGTCTTGGGTTCTAACCTGTTGCCT (site TGTGAGTCTAT)” are within 0.2 log units of each other in “recombinant barcode read abundance (log10)” value: 0.0256 for the first, 0.0543 for the second.

First: TGCGCCACTTGGGTTCTAACCTGTTGCCT (site TGCGCCACTAG)
Second: TCCTAAGCTTGGGTTCTAACCTGTTGCTA (site TCCCAAGCTTA)
The “recombinant barcode read abundance (log10)” value of the first is higher: 0.517 for the first, 0.227 for the second.

“TCCAACCCTTGGGTTCTAACCTGTTGCTG (site GCCAAGCCTCA)” and “CCGTCTACTTGGGTTCTAACCTGTTGCTA (site CCGTCTACTAA)” are within 0.2 log units of each other in “recombinant barcode read abundance (log10)” value: 0.0799 for the first, 0.02 for the second.

“CTTCGAGCTTGGGTTCTAACCTGTTGCAG (site CTTCGAGCTCA)” and “CTAGTTACTTGGGTTCTAACCTGTTGCCT (site CTAATTACTAG)” are within 0.2 log units of each other in “recombinant barcode read abundance (log10)” value: 0.172 for the first, 0.0479 for the second.

Compared with “AGACGTCCTTGGGTTCTAACCTGTTGCGT (site ATACGTCCTAT)”, “GTCGGTACTTGGGTTCTAACCTGTTGCCT (site GTCGGGACTAG)” is lower in “recombinant barcode read abundance (log10)” value: 0.233 for the first, 0.0319 for the second.

Going from “TCCAGTACTTGGGTTCTAACCTGTTGCAT (site TCCAGTACTAT)” to “CAAGTGCCTTGGGTTCTAACCTGTTGCCT (site CAAGTGCCTAG)”, the “recombinant barcode read abundance (log10)” value rises from 0.351 to 2.01.

Going from “AAGTCGACTTGGGTTCTAACCTGTTGCCT (site AAGTGGACTAG)” to “CTAAATCCTTGGGTTCTAACCTGTTGCCT (site CTAAATCCTAG)”, the “recombinant barcode read abundance (log10)” value rises from 0.0428 to 0.303.

Compared with “CTTACTACTTGGGTTCTAACCTGTTGCCA (site TCCGGCGCTCC)”, “ATGGGCCCTTGGGTTCTAACCTGTTGCTG (site ATGGGCCCTCA)” is higher in “recombinant barcode read abundance (log10)” value: 0.0182 for the first, 2.97 for the second.

First: CGTTCCACTTGGGTTCTAACCTGTTGCCT (site CGTTCCACTAG)
Second: CCTCAGGCTTGGGTTCTAACCTGTTGCCA (site CCTCAGGCTAG)
The “recombinant barcode read abundance (log10)” value of the first is lower: 0.0687 for the first, 0.312 for the second.

First: GAAGCATCTTGGGTTCTAACCTGTTGCCT (site GAAGCATCTAG)
Second: ATTCGGCCTTGGGTTCTAACCTGTTGCCT (site AGTCGGCCTAG)
The “recombinant barcode read abundance (log10)” value of the first is higher: 1.54 for the first, 0.038 for the second.

Going from “CGCAATGCTTGGGTTCTAACCTGTTGCCT (site CGGAATGCTAG)” to “ACTTCAACTTGGGTTCTAACCTGTTGCCT (site ACTTCAACTAG)”, the “recombinant barcode read abundance (log10)” value falls from 0.469 to 0.101.

Compared with “CGCGGTCCTTGGGTTCTAACCTGTTGCCT (site CGCGATCCTAG)”, “ATGGTGTCTTGGGTTCTAACCTGTTGCCT (site ATGGTGGCTAG)” is lower in “recombinant barcode read abundance (log10)” value: 0.305 for the first, 0.0539 for the second.

“AGTTAGTCTTGGGTTCTAACCTGTTGCCA (site AGTCAGTCTTG)” and “CCGCGCCCTTGGGTTCTAACCTGTTGCAT (site ACGCGCCCTGT)” are within 0.2 log units of each other in “recombinant barcode read abundance (log10)” value: 0.0961 for the first, 0.0166 for the second.

“ATCGGCCCTTGGGTTCTAACCTGTTGCTG (site GTGGGCCCTCA)” and “TATACCACTTGGGTTCTAACCTGTTGCCT (site TCGACCACTAG)” are within 0.2 log units of each other in “recombinant barcode read abundance (log10)” value: 0.0497 for the first, 0.103 for the second.

Going from “CGCCGTACTTGGGTTCTAACCTGTTGCCT (site CGGCGTACTAG)” to “CGTAAATCTTGGGTTCTAACCTGTTGCCT (site CGTAAATCTAG)”, the “recombinant barcode read abundance (log10)” value falls from 0.349 to 0.146.

First: CTTCGACCTTGGGTTCTAACCTGTTGCAT (site CTTCGACCTAT)
Second: TAGTTAACTTGGGTTCTAACCTGTTGCCA (site TAGTTGACTTG)
The “recombinant barcode read abundance (log10)” value of the first is higher: 2.04 for the first, 0.0635 for the second.

“AGTCTCTCTTGGGTTCTAACCTGTTGCTA (site AGTCTCTCTCG)” and “AGGGCTTCTTGGGTTCTAACCTGTTGCTA (site ACGGCTTCTTA)” are within 0.2 log units of each other in “recombinant barcode read abundance (log10)” value: 0.128 for the first, 0 for the second.

“CTTTCCTCTTGGGTTCTAACCTGTTGCCT (site CATTCCTCTAG)” and “AACTAATCTTGGGTTCTAACCTGTTGCCT (site AACTAATCTAG)” are within 0.2 log units of each other in “recombinant barcode read abundance (log10)” value: 0.153 for the first, 0.327 for the second.

First: ATAAAACCTTGGGTTCTAACCTGTTGCCT (site CTAAAACCTAG)
Second: CGTACCTCTTGGGTTCTAACCTGTTGCTA (site CGTACCTCTGA)
The “recombinant barcode read abundance (log10)” value of the first is higher: 0.64 for the first, 0.0598 for the second.

Going from “TAGGATACTTGGGTTCTAACCTGTTGCGT (site TAGGACACTAC)” to “TGTCAAGCTTGGGTTCTAACCTGTTGCCT (site TGTCAACCTAG)”, the “recombinant barcode read abundance (log10)” value falls from 0.928 to 0.045.

“CAGATCCCTTGGGTTCTAACCTGTTGCCT (site CTGATCCCTAG)” and “TGTATGACTTGGGTTCTAACCTGTTGCCT (site CGTATGACTAG)” are within 0.2 log units of each other in “recombinant barcode read abundance (log10)” value: 0.0156 for the first, 0.0259 for the second.

Going from “ATTGGTCCTTGGGTTCTAACCTGTTGCCT (site ATTGGTCCTAG)” to “AGCAGGTCTTGGGTTCTAACCTGTTGCCT (site ATCAGGTCTAG)”, the “recombinant barcode read abundance (log10)” value falls from 1.66 to 0.0118.

Compared with “AAACTTACTTGGGTTCTAACCTGTTGCCT (site AAACTTACTAG)”, “AGAGTGACTTGGGTTCTAACCTGTTGCCT (site AGAGGGACTAG)” is lower in “recombinant barcode read abundance (log10)” value: 0.721 for the first, 0.0448 for the second.

Going from “ACGAGAGCTTGGGTTCTAACCTGTTGCCT (site ACCAGAGCTAG)” to “ATGGGGTCTTGGGTTCTAACCTGTTGCTT (site ATGGGGTCTAA)”, the “recombinant barcode read abundance (log10)” value rises from 0.0692 to 1.73.

“GTATACCCTTGGGTTCTAACCTGTTGCAT (site GTATACCCTTG)” and “ATCGGATCTTGGGTTCTAACCTGTTGCCT (site ATCGGAGCTAG)” are within 0.2 log units of each other in “recombinant barcode read abundance (log10)” value: 0.224 for the first, 0.232 for the second.

First: ACTCACACTTGGGTTCTAACCTGTTGCTT (site ACTCACACTAA)
Second: GACTCTCCTTGGGTTCTAACCTGTTGCTG (site GACTCTCCTCA)
The “recombinant barcode read abundance (log10)” value of the first is higher: 1.06 for the first, 0.146 for the second.

“GAAGCATCTTGGGTTCTAACCTGTTGCCT (site GATGCCTCTAG)” and “AGTGGAGCTTGGGTTCTAACCTGTTGCCT (site AGGGGATCTAG)” are within 0.2 log units of each other in “recombinant barcode read abundance (log10)” value: 0.123 for the first, 0.0601 for the second.

First: GACGTGTCTTGGGTTCTAACCTGTTGCGT (site GACGTGTCTAC)
Second: AGGCTGACTTGGGTTCTAACCTGTTGCCT (site AGGCTGTCTAG)
The “recombinant barcode read abundance (log10)” value of the first is higher: 2.47 for the first, 0.139 for the second.

Going from “ACCATGTCTTGGGTTCTAACCTGTTGCGG (site TAGTACACTGT)” to “TAGCCTACTTGGGTTCTAACCTGTTGCGG (site TAGCCTACTCC)”, the “recombinant barcode read abundance (log10)” value rises from 0.171 to 1.41.

Going from “CTAGACTCTTGGGTTCTAACCTGTTGCAT (site CTAGACTCTCT)” to “CCAGGAGCTTGGGTTCTAACCTGTTGCCT (site CCAGCAGCTAG)”, the “recombinant barcode read abundance (log10)” value falls from 1.75 to 0.103.

Compared with “GTTTGGACTTGGGTTCTAACCTGTTGCAG (site GCTTGGACTAT)”, “TCGGGGACTTGGGTTCTAACCTGTTGCCG (site TCGGGGACTCG)” is higher in “recombinant barcode read abundance (log10)” value: 0.153 for the first, 0.601 for the second.

First: CCTAAGACTTGGGTTCTAACCTGTTGCCT (site CCTAAGACTAG)
Second: AGCTTAGCTTGGGTTCTAACCTGTTGCCC (site AGCTTAGCTAG)
The “recombinant barcode read abundance (log10)” value of the first is higher: 0.595 for the first, 0.306 for the second.

“GAGTCTTCTTGGGTTCTAACCTGTTGCCA (site GAGTCTTCTTG)” and “TATATGACTTGGGTTCTAACCTGTTGCGG (site ATGCACGCTAG)” are within 0.2 log units of each other in “recombinant barcode read abundance (log10)” value: 0.147 for the first, 0.0662 for the second.

Compared with “GTCTCCTCTTGGGTTCTAACCTGTTGCCT (site GTCTCCTCTAG)”, “ACCCTAACTTGGGTTCTAACCTGTTGCCG (site ACCCTATCTAG)” is lower in “recombinant barcode read abundance (log10)” value: 1.62 for the first, 0.129 for the second.

“TACCAGACTTGGGTTCTAACCTGTTGCCT (site TACCTGACTAG)” and “CCGCGCTCTTGGGTTCTAACCTGTTGCTG (site ACGAGCTCTCA)” are within 0.2 log units of each other in “recombinant barcode read abundance (log10)” value: 0.0512 for the first, 0 for the second.

Going from “CTTGAATCTTGGGTTCTAACCTGTTGCCT (site CTTAAATCTAG)” to “GGGAACCCTTGGGTTCTAACCTGTTGCTG (site GGGAACCCTTA)”, the “recombinant barcode read abundance (log10)” value rises from 0.117 to 0.867.

“TAACCGTCTTGGGTTCTAACCTGTTGCAT (site TAACCGTCTAT)” and “CGCAATGCTTGGGTTCTAACCTGTTGCCT (site CGTAATGCTAG)” are within 0.2 log units of each other in “recombinant barcode read abundance (log10)” value: 0.286 for the first, 0.322 for the second.

Compared with “GATCCCACTTGGGTTCTAACCTGTTGCCT (site GATCCCACTAG)”, “TTGGACACTTGGGTTCTAACCTGTTGCCT (site TTGGTCACTAG)” is lower in “recombinant barcode read abundance (log10)” value: 1.34 for the first, 0.227 for the second.

First: TGCTGTTCTTGGGTTCTAACCTGTTGCCT (site TGCTGTGCTAG)
Second: TGGGACACTTGGGTTCTAACCTGTTGCCG (site TGGGACACTCG)
The “recombinant barcode read abundance (log10)” value of the first is lower: 0.241 for the first, 2.48 for the second.

“CTAAGAACTTGGGTTCTAACCTGTTGCAT (site CTAAGAACTAG)” and “CTAGCGTCTTGGGTTCTAACCTGTTGCTT (site CTAGAGTCTAA)” are within 0.2 log units of each other in “recombinant barcode read abundance (log10)” value: 0.188 for the first, 0.115 for the second.

“TCACATTCTTGGGTTCTAACCTGTTGCCT (site TCAGATTCTAG)” and “CCTCAGGCTTGGGTTCTAACCTGTTGCCA (site CCTCAGGCTGG)” are within 0.2 log units of each other in “recombinant barcode read abundance (log10)” value: 0.183 for the first, 0.217 for the second.

“CTAAGGACTTGGGTTCTAACCTGTTGCTT (site CTAAGGACTAA)” and “ACGTAATCTTGGGTTCTAACCTGTTGCTT (site ACGTAATCTAA)” are within 0.2 log units of each other in “recombinant barcode read abundance (log10)” value: 0.0753 for the first, 0.207 for the second.

“TAACCTACTTGGGTTCTAACCTGTTGCTA (site TAACCTACTTA)” and “AGGCTGACTTGGGTTCTAACCTGTTGCCT (site AGGCTGACTAG)” are within 0.2 log units of each other in “recombinant barcode read abundance (log10)” value: 0.864 for the first, 0.94 for the second.
